The values below come from publication PMC5989226 (Nature Communications, 2018).

Format in all cases: binding
The target in assay [1] is T1, DELAY OF GERMINATION1 (DOG1) (Arabidopsis thaliana, UniProt A0SVK0, H245A).
T1 construct: full-length, N-terminal His6-tagged
The assay can be described thus: UV-visible absorption hemin titration ([…] nm).

The target of assay [2] is T2, DELAY OF GERMINATION1 (DOG1) (Arabidopsis thaliana, UniProt A0SVK0).
T2 sequence (A0SVK0 1-291): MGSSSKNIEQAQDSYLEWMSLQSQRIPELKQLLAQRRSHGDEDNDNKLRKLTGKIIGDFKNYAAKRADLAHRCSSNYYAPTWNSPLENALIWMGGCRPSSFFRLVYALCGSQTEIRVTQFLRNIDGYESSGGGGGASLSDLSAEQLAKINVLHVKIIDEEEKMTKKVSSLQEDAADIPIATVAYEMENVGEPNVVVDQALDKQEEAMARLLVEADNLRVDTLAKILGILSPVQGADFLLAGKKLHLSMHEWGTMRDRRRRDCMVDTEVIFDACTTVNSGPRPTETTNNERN
The assay can be described thus: UV-visible absorption titration of apo-DOG1 with hemin (Soret peak, […] nm), […] fit.

Assay [3] has as its target T3, DELAY OF GERMINATION1 (DOG1) (Arabidopsis thaliana, UniProt A0SVK0, H245A/H249A).
T3 construct: full-length, N-terminal His6-tagged
The assay can be described thus: UV-visible absorption hemin titration ([…] nm).

T1 sequence (A0SVK0 whole entry H245A): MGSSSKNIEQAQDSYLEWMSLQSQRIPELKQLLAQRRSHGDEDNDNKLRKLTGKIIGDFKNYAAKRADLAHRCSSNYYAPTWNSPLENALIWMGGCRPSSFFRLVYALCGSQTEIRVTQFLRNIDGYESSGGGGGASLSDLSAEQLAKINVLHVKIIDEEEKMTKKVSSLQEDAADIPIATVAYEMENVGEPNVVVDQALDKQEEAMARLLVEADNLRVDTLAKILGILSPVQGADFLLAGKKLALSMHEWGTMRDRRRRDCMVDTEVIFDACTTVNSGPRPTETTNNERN
T3 sequence (A0SVK0 whole entry H245A/H249A): as the sequence (A0SVK0 whole entry H245A) above, with H249A counted along it

`C=CC1=C(C)C2=Cc3c(C=C)c(C)c4[n]3[Fe]([Cl])[n]3c(c(C)c(CCC(=O)O)c3=CC3=NC(=C4)C(C)=C3CCC(=O)O)=CC1=N2` [hemin]: the Kd in assay [1] amounted to 129 nM; in assay [2], 59 nM; in assay [3] it was 918 nM.
